We go through one compound from ChEMBL document CHEMBL5375981, “Enhanced Tumor Targeting and Penetration of Proteolysis-Targeting Chimeras through iRGD Peptide Conjugation: A Strategy for Precise Protein Degradation in Breast Cancer” (J Med Chem, 2023).

SMILES strings stand for the structures. Activity calls are given as the source filed them. The rule behind the calls is not given here.

A short description of data set [1]: Solubility in distilled water measured for 30 mins by ultraviolet spectrophotometry analysis. It is filed as physicochemical.
Data set [2] is described as follows: Stability of compound in PBS containing 5% serum at 50 uM measured after 72 hrs by LC-MS analysis. It is filed as physicochemical, cell-free. To be noted: read-out: Stability.
In data set [3] the target is Bromodomain-containing protein 4 (Homo sapiens) (UniProt O60885). As to the kind of experiment: Induction of BRD4 degradation in human MDA-MB-231 cells harboring high integrin alphaVbeta3 expression at 0.1 to 1 uM incubated for 24 hrs by Western blot analysis. To be noted: dose 0.1-1 µM. It is filed as cell-based.
Data set [4] shares this target. As to the kind of experiment: Induction of BRD4 degradation in human MCF7 cells harboring low integrin alphaVbeta3 expression at 300 nM incubated for 12 hrs by immunofluorescence staining based confocal microscopic analysis. It is filed as cell-based.
The next data set concerns MDA-MB-231. As to the kind of experiment: Antiproliferative activity against human MDA-MB-231 cells harboring high integrin alphaVbeta3 expression assessed as inhibition of cell growth incubated for 72 hrs by CCK-8 assay. The format is functional, cell-based. To be noted: MDA-MB-231, 72 h.
Data set [5] concerns the target Bromodomain-containing protein 4 (Homo sapiens) (UniProt O60885). The experiment in a line: Induction of BRD4 degradation in human MDA-MB-231 cells harboring high integrin alphaVbeta3 expression assessed as reduction in BRD4 levels at 500 nM pretreated with integrin receptor antagonist cilengitide for 2 hrs followed by compound addition and measured after 12 hrs by immunofluorescence staining based confocal microscopic analysis. It is filed as cell-based.

A short description of data set [6]: Toxicity in BALB/C mouse xenografted with human MDA-MB-231 cells assessed as effect on heart weight at 5 to 8 uM, iv administered every other day for 21 days. The format is organism-based. As to conditions: in vivo, 504 h, dose 5-8 µM, time 21 day.
A short description of data set [7]: Toxicity in BALB/C mouse xenografted with human MDA-MB-231 cells assessed as effect on kidney weight at 5 to 8 uM, iv administered every other day for 21 days. The format is organism-based. To be noted: in vivo, 504 h, dose 5-8 µM, time 21 day.
The nature of data set [8]: Toxicity in BALB/C mouse xenografted with human MDA-MB-231 cells assessed as lung damage at 5 to 8 uM, iv administered every other day for 21 days and measured 37 days post treatment by H and E staining based assay. The format is organism-based. To be noted: in vivo, 1392 h, dose 5-8 µM, time 58 day.
The nature of data set [9]: Toxicity in BALB/C mouse xenografted with human MDA-MB-231 cells assessed as kidney damage at 5 to 8 uM, iv administered every other day for 21 days and measured 37 days post treatment by H and E staining based assay. It is filed as organism-based. To be noted: in vivo, 1392 h, dose 5-8 µM, time 58 day.
The next data set concerns Mus musculus. The experiment in a line: In vivo induction of BRD4 degradation in BALB/C mouse xenografted with human MDA-MB-231 cells assessed as reduction in BRD4 level in tumor at 5 to 8 uM, iv administered every other day and measured after 21 days by immunohistochemistry analysis. The format is functional, organism-based. To be noted: dose 5-8 µM, time 21.0 day.
Data set [10] is described as follows: Antitumor activity against patient-derived Breast cancer organoid assessed as inhibition of cell growth incubated for approximately 3 to 5 days by CCK-8 assay. To be noted: Homo sapiens. The format is functional, tissue-based.

As for `Cc1ncsc1-c1ccc([C@H](C)NC(=O)[C@@H]2C[C@@H](OC(=O)OCCSSCCOC(=O)CCC(=O)NCCCC[C@@H]3NC(=O)[C@H](CC(=O)O)NC(=O)CNC(=O)[C@H](CCCNC(=N)N)NC(=O)[C@@H](N)CSSC[C@@H](C(=O)O)NC(=O)[C@H](CC(=O)O)NC(=O)[C@@H]4CCCN4C(=O)CNC3=O)CN2C(=O)[C@@H](NC(=O)COCCOCCOCCNC(=O)C[C@@H]2N=C(c3ccc(Cl)cc3)c3c(sc(C)c3C)-n3c(C)nnc32)C(C)(C)C)cc1`, the solubility at 0.5 h in [1] was over 10 mM. In addition, the remaining at 72 h, 50 µM in data set [2] was found to be 89.9%. Besides, the result (in data set [3]; in the data set on Mus musculus) was Active. The outcome in data set [4] and in data set [5] was inactive. Moreover, the values for the IC50 (in the data set on MDA-MB-231; in data set [10]) were 88 nM and 950 nM, respectively. Also, the Activity result in [6], in data set [7], in [8] and in data set [9] was “Non-Toxic” each time.
